≈ marks a conversion by molar mass, not a printed value. Entries after “also recorded” stand apart in the source; their conditions may differ. Square brackets hold non-standard residues; d marks the D form. Peptide text beside a SMILES is read from it. Ac6c = NC1(C(=O)O)CCCCC1
Legend:
E. coli 70S ribosome [1] = assay: Competitive fluorescence polarization assay against Cf-ARV-1502 (Ki); assay type: binding, E. coli BW25113; details: 20 nmol/L Cf-ARV-1502, 0.5 µmol/L ribosome, 28 °C, 90 min + 90 min, Ki calculated from IC50; for Ki: read-out: Ki (nmol/L), competition with Cf-ARV-1502
Protocol: E. coli 70S ribosomes were prepared using a previously described protocol that was slightly modified. Briefly, E. coli BW25113 was cultivated in Luria-Bertani (LB) medium and cells were harvested after reaching an optical density of ~4 at 600 nm by centrifugation (5000× g, 15 min, 4 °C, Rotor JLA 8.100, Avanti J-20 XP, Beckmann Coulter, Krefeld, Germany). The cell pellets were frozen and stored at −80 °C. Cells were resuspended in ribosome buffer (2 mL/g cells; 20 mmol/L HEPES-KOH, 6 mmol/L MgCl2, 30 mmol/L NH4Cl, 4 mmol/L 2-mercaptoethanol, pH 7.6). Lysozyme (0.25 g/L cell suspension) was added, and the mixture was incubated on ice for 30 min. Cells were disrupted using the bead mill homogenizer FastPrep-24™ 5G (40 s, 4 m/s, 6 cycles, MP Biomedicals Germany GmbH, Eschwege, Germany) and zirconia/silica beads (0.1 mm diameter). The lysate was centrifuged (1500× g, 5 min, 4 °C, Rotor S4180, Allegra 21R, Beckmann Coulter) and the supernatant was incubated with DNase (5 U/mL) on ice for 60 min.
Dissociation and inhibitory constants were determined in black 384-well-plates (Greiner Bio-One GmbH, Frickenhausen, Germany) blocked with 0.5% (w/v) casein in phosphate buffered saline (PBS, 8.8 mmol/L Na2HPO4×12 H2O, 1.2 mmol/L KH2PO4, 0.3 mol/L NaCl, pH 7.4) containing 0.05% (w/v) Tween® 20 (PBST) overnight at 4 °C and washed three times with PBST.
Ribosome solution was added (10 µmol/L) and the plate was incubated after centrifugation (2 min, 500× g, Rotor S2096, Allegra^TM 21R, Beckmann Coulter) at 28 °C for 90 min. Cf-labeled peptide was added (10 µL; final concentration of 20 nmol/L; final ribosome concentration of 0.5 µmol/L) and the plate was centrifuged and incubated again (90 min, 28 °C, dark). […] Kd and IC50 values were calculated by fitting the data with a variable slope parameter [y = min + (max − min)/(1 + (x/Kd) ^−Hill slope) ] using SigmaPlot 13 (Systat Software Inc., San Jose, CA, USA). The obtained IC50 values were used to calculate the Ki values.

E. coli BW25113 = assay: MIC, liquid broth micro dilution, wild type; assay type: cell-based, Escherichia coli; details: for MIC (µg/mL), Table 3: BW25113, 4 h; for Minimal Inhibitory Concentration, 25% MHB2, wt / Minimal Inhibitory Concentration, 33% TSB, wt: BW25113, 20 h
Protocol: MIC values were determined using a liquid broth micro dilution assay in sterile 96-well plates (polystyrene F-bottom, Greiner Bio-One GmbH) and a total volume of 100 μL per well. Aqueous peptide solutions (10 g/L) were serially twofold diluted in 25% Mueller-Hinton broth 2 (25% MBH2) or 33% tryptic soy broth (33% TSB) starting at a peptide concentration of 128 mg/L (50 μL/well). Overnight cultures of bacteria grown in 25% MHB2 (or 33% TSB) were diluted 30-fold in 25% MHB2 (or 33% TSB). After an incubation period of 4 h (37 °C, 200 rpm), cells were diluted to 1.5 × 10^7 cfu/mL, based on a McFarland test, and 50 μL were added to each well (final concentration of 7.5 × 10^6 […]). The plates were incubated (37 °C, 20 h) and the optical density was recorded at 595 nm using a microplate reader ([…]^TM, Beckmann Coulter). The MIC was defined as the lowest peptide concentration preventing visible bacterial growth.

E. coli 70S ribosome [2] = assay: Cell-free GFP expression assay (in vitro translation); assay type: biochemical; details: for In Vitro Translation (%): GFP expression remaining relative to control, concentration not given (higher concentration 50 µmol/L)
From the text: Possible effects of ARV-1502 and its substituted analogs on the in vitro translation of the green fluorescent protein (GFP) were probed using the NEB PureExpress Delta RF123 Kit (New England Biolabs, Ipswich, MA, USA). The sfGFP DNA template was amplified from pY71sfGFP plasmid by PCR introducing an UAA stop codon. Release factor 1 (RF1) was 50fold diluted in Pure System Buffer (PSB) containing magnesium acetate (1 mol/L), monopotassium phosphate (0.5 mol/L, pH 7.3), potassium glutamate (1 mol/L), NH4Cl (1 mol/L), calcium chloride (0.5 mol/L), spermidine (1 mol/L), putrescine (0.1 mol/L), and DTT (0.1 mol/L). Each reaction used 35 ng of sfGFP template. Peptides were added at a final concentration of 5 µmol/L and 50 µmol/L. The reaction was started by adding Kit solutions A (2 µL) and B (1.5 µL), diluted RF1 (0.5 µL), sfGFP template (0.25 µL or water as negative control), PSB (0.25 µL), and peptide (0.5 µL or water), mixed, transferred into a black 384-well plate (flat bottom, Greiner Bio-One GmbH), and incubated (37 °C, 2 h). The fluorescence was recorded every 10 min (λexc = 485 nm, λem = 535 nm) in a microplate reader (Gemini EM, Molecular Devices LLC, San Jose, CA, USA).

SMILES | Ki (nmol/L), competition with Cf-ARV-1502 (E. coli 70S ribosome [1]) | MIC (µg/mL), Table 3 (E. coli BW25113) [µg/mL] | Minimal Inhibitory Concentration, 25% MHB2, wt (E. coli BW25113) [µg/mL] | Minimal Inhibitory Concentration, 33% TSB, wt (E. coli BW25113) [µg/mL] | In Vitro Translation (%) (E. coli 70S ribosome [2]) | Reduction of GFP fluorescence intensity, 10-fold lower concentration (5 µmol/L peptide) (E. coli 70S ribosome [2]; cell-free expression, 2.5-fold peptide excess, 37 °C) [%] | Ki (E. coli 70S ribosome [1]) [nmol/L] | Reduction of GFP expression, 50 µmol/L peptide (E. coli 70S ribosome [2]; cell-free expression, peptide-to-ribosome ratio of 25, GFP fluorescence, 37 °C) | IC50 (E. coli 70S ribosome [2]; in vitro translation, Supplementary Figure S2, reference 4 is also given at the place, read-out: IC50 of inhibition of GFP expression) [nM]
CC(C)C[C@H](NC(=O)[C@H](Cc1ccc(O)cc1)NC(=O)[C@@H]1CCCN1C(=O)[C@H](CCCNC(=N)N)NC(=O)[C@@H]1CCCN1C(=O)[C@H](CCCCN)NC(=O)[C@H](CCCCN)NC(=O)[C@@H]1CCCN1C(=O)[C@H](CCCNC(=N)N)NC(=O)C1(N)CCCCC1)C(=O)N1CCC[C@H]1C(=O)N[C@@H](CCCNC(=N)N)C(=O)N1CCC[C@H]1C(=O)N[C@@H](CCCNC(=N)N)C(=O)N1CCC[C@H]1C(=O)N1CCC[C@H]1C(=O)N[C@@H](CCCNC(=N)N)C(=O)N1CCC[C@H]1C(=O)N[C@H](C(=O)N[C@@H](CCCNC(=N)N)C(N)=O)C(C)C [Peptide 2] (H-[Ac6c]RPKKPRPYLPRPRPPRPVR-NH2; N-terminus and C-terminus assumed) | did not alter the Ki value | 4 (≈ 1.61 µM) | 4 | 32 to 64 | 53.2 ± 8.2 | 22 | – | – | –
CC(C)C[C@H](NC(=O)[C@H](Cc1ccc(O)cc1)NC(=O)[C@@H]1CCCN1C(=O)[C@H](CCCNC(=N)N)NC(=O)[C@@H]1CCCN1C(=O)[C@H](CCCCN)NC(=O)[C@H](CC(=O)O)NC(=O)[C@@H]1CCCN1C(=O)[C@H](CCCNC(=N)N)NC(=O)C1(N)CCCCC1)C(=O)N1CCC[C@H]1C(=O)N[C@@H](CCCNC(=N)N)C(=O)N1CCC[C@H]1C(=O)N[C@@H](CCCNC(=N)N)C(=O)N1CCC[C@H]1C(=O)N1CCC[C@H]1C(=O)N[C@@H](CCCNC(=N)N)C(=O)N1CCC[C@H]1C(=O)N[C@H](C(=O)N[C@@H](CCCNC(=N)N)C(N)=O)C(C)C [ARV-1502] (H-[Ac6c]RPDKPRPYLPRPRPPRPVR-NH2) | – | 8 (≈ 3.23 µM) | 8 | 16 | 105.8 ± 0.9 | – | 135 ± 10 | no significant effects; also recorded: not at all | –
CC[C@H](C)[C@H](NC(=O)[C@@H](CCCNC(=N)N)NC(=O)[C@H](CCCNC(=N)N)NC(=O)[C@@H]1CCCN1C(=O)[C@@H]1CCCN1C(=O)[C@H](CCCNC(=N)N)NC(=O)[C@@H]1CCCN1C(=O)[C@H](CCCNC(=N)N)NC(=O)[C@@H]1CCCN1C(=O)[C@H](CC(C)C)NC(=O)[C@H](Cc1ccc(O)cc1)NC(=O)[C@@H]1CCCN1C(=O)[C@@H]1CCCN1C(=O)[C@H](CCCCN)NC(=O)[C@H](CC(=O)O)NC(=O)[C@@H](N)C(C)C)C(=O)N[C@@H](Cc1ccc(O)cc1)C(=O)N[C@@H](CC(N)=O)C(=O)N[C@H](CCCNC(=N)N)C(N)=O [Onc112, reference compound] (H-VDKPPYLPRPRPPR[dR]IYN[dR]-NH2; N-terminus and C-terminus assumed) | – | 8 (≈ 3.35 µM) | 8 | 16 | 4.9 ± 0.3 | – | 124 ± 2 | – | 150
